Results published in US6235717A, “Pharmaceutical compounds” (Glaxo Wellcome Inc., priority 1993, dated 2001).

Biological target: endothelin converting enzyme (ECE) (Sus scrofa, UniProt F1SU04)
Experiment: "ECE" assay with porcine aortic "ECE" prep, fluorogenic substrate Suc-Ile-Ile-Trp-MCA
Assay type: biochemical
Conditions: porcine aortic endothelial cell ECE prep; 80 μM Suc-Ile-Ile-Trp-MCA; 15-20 min preincubation; overnight at 37° C.; pH 7.0; AMC fluorescence
Outline: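 Enzyme was a partially purified porcine aortic endothelial-cell lysate (100,000 g supernatant, anion-exchange fractions). Assay buffer was 100 mM Tris-HCl pH 7.0 with 20 mM CaCl2 and 80 μM substrate. Compound was preincubated with enzyme 15–20 min and the reaction ran overnight at 37 °C. AMC fluorescence was read at 360/460 nm, and IC50 came from a Hill plot.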

Chain of endothelin converting enzyme (ECE) (F1SU04 entry or part of it): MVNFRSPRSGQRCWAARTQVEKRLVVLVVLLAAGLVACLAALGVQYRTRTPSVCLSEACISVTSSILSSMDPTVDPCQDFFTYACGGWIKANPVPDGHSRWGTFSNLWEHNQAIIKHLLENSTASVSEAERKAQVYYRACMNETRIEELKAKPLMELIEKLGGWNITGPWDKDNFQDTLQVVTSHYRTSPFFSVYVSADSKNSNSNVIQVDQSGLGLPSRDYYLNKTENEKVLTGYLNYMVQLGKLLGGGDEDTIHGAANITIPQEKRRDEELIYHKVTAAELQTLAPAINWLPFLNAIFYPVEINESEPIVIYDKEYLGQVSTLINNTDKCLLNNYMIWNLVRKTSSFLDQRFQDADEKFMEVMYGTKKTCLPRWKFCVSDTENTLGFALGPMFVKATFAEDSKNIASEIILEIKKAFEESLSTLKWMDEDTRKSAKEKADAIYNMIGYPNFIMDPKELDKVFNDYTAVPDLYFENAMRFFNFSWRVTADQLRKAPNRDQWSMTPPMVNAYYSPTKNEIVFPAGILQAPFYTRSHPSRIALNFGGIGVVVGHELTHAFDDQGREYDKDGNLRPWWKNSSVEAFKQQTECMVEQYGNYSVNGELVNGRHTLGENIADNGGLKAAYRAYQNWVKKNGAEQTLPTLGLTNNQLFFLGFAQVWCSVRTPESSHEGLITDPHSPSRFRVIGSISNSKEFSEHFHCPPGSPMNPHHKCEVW

| Substance | IC50 |
| --- | --- |
| N-Benzyloxycarbonyl-L-isoleucyl-L-isoleucine-L-N-[1pyruvoyl]2-(phenyl)ethyl]amide [Example 52] | 2000 nM |
| N-Benzyloxycarbonyl-L-isoleucyl-L-isoleucine-L-N-[(E)-2-(methoxycarbonyl)vinyl]2-(1H-indol-3-yl)ethyl]amide [Example 51] | 10000 nM |
| N-Benzyloxycarbonyl-L-isoleucyl-L_isoleucine-L-N-[1[2-(acetylthio)acetyl]2- phenyl)ethyl]amide [Example 55] | 8000 nM |
| N-Benzyloxycarbonyl-S-isoleucyl-S-phenylalanyl-1-S-formyl-1-(S)-1-methylpropylbutyl-methylamide [Example 23] | 3500 nM |
| N-Benzyloxycarbonyl-S-p-bromophenylalanyl-S-2'naphthylalanyl-1-S-formyl-1-(1H-indol-3-yl-methyl)-methylamide [Example 38] | 8 nM |
| N-Benzyloxycarbonyl-S-tryptophanyl-S-2'naphthylalanyl-1-S-formyl-1-(1H-indol-3-yl-methyl)-methylamide [Example 35] | 30 nM |
| N-Benzyloxycarbonyl-S-tryptophanyl-S-tryptophanyl-1-S-formyl-1-(1H-indol-3- yl-methyl)-methylamide [Example 31] | 60 nM |
| N-[12-[(benzyloxy)acetamido]dodecanoyl]--L-isoleucyl-L-isoleucine-L-N-[1-formyl]2-(1H-indol-3-yl)ethyl]amide [Example 79] | 60 nM |
| N-[(benzyloxy)carbonyl]-L-aspart-1-yl]-L-isoleucyl-L-isoleucine-L-N-[1-dimethoxymethyl]2-(1H-indol-3-yl)ethyl]amide [Example 76] | 2600 nM |
| N-[[5-(hexahydro-2-oxo-1H-thieno[3,4-d]imidazol-4-yl]valeryl-L-isoleucyl-L- isoleucine-L-N-[1-formyl]2-(1H-indol-3-yl)ethyl]amide [Example 63] | 30 nM |
| N-[[[5-(hexahydro-2-oxo-1H-thieno[3,4-d]imidazol-4-yl)valeramido]hexanoyl]- L-isoleucyl-L-isoleucine-L-N-[1-formyl]2-(1H-indol-3-yl-ethyl]amide [Example 67] | 80 nM |
| N-[benzyloxy)carbonyl]-L-aspart-1-yl]-L-isoleucyl-L-isoleucine-L-N-[1-formyl]2-(1H-indol-3-yl)ethyl]amide [Example 65] | 100 nM |
| [[5-(hexahydro-2-oxo-1H-thieno[3,4-d]imidazol-4-yl]valeryl-L-isoleucyl-L-isoleucine-L-N-[1-dimethoxymethyl]2-(1H-indol-3-yl)ethyl]amide [Example 62] | 2000 nM |
